Laboratory results as given in PubChem BioAssay AID1845197 (Molecular Pharmacology Branch, DTP, NCI, 2023).

Test system: 349418-098-R tumor spheroid viability
Test: Anticancer human tumor 349418-098-R patient-derived lung adenocarcinoma cell line growth inhibition
Settings: spheroids with HUVEC and MSC; for IC50: curve of first compound; for viability, T/C: stronger effect = lower value
Outline: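 Complex tumor spheroids combined malignant cells with endothelial cells and mesenchymal stem cells. DNA-damaging drugs and DNA repair inhibitors were tested alone and in combination, at half-log dilutions down from clinical Cmax (top 10 microM if Cmax unknown), 0.25% DMSO final.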
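Note: spheroids exposed to compound for 7 days before measurement.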
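Throughout, for viability, T/C: percent of vehicle control viability with 100% = DMSO-treated spheroids.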

Compound: O=C(c1cc(Cc2n[nH]c(=O)c3ccccc23)ccc1F)N1CCN(C(=O)C2CC2)CC1 + COc1cc2c(cc1O)CCNC21CSC2c3c(OC(C)=O)c(C)c4c(c3C(COC1=O)N1C(O)C3Cc5cc(C)c(OC)c(O)c5C(C21)N3C)OCO4
- IC50 (second compound 30 pM): > 30 µM
- IC50 (second compound 94.9 pM): > 30 µM
- IC50 (second compound 0.0003 µM): 3.7 µM
- IC50 (second compound 0.000949 µM): < 0.0949 µM
- IC50 (second compound 0.003 µM): < 0.0949 µM
- viability, T/C (second compound 30 pM, first compound 0.0949 µM): 122%
- viability, T/C (second compound 30 pM, first compound 0.3 µM): 107%
- viability, T/C (second compound 30 pM, first compound 0.949 µM): 108%
- viability, T/C (second compound 30 pM, first compound 3 µM): 111%
- viability, T/C (second compound 30 pM, first compound 9.49 µM): 107%
- viability, T/C (second compound 30 pM, first compound 30 µM): 69.6%
- viability, T/C (second compound 94.9 pM, first compound 0.0949 µM): 104%
- viability, T/C (second compound 94.9 pM, first compound 0.3 µM): 108%
- viability, T/C (second compound 94.9 pM, first compound 0.949 µM): 102%
- viability, T/C (second compound 94.9 pM, first compound 3 µM): 107%
- viability, T/C (second compound 94.9 pM, first compound 9.49 µM): 98.7%
- viability, T/C (second compound 94.9 pM, first compound 30 µM): 54.6%
- viability, T/C (second compound 0.0003 µM, first compound 0.0949 µM): 94.9%
- viability, T/C (second compound 0.0003 µM, first compound 0.3 µM): 87.4%
- viability, T/C (second compound 0.0003 µM, first compound 0.949 µM): 79.7%
- viability, T/C (second compound 0.0003 µM, first compound 3 µM): 58.9%
- viability, T/C (second compound 0.0003 µM, first compound 9.49 µM): 19.3%
- viability, T/C (second compound 0.0003 µM, first compound 30 µM): 5.2%
- viability, T/C (second compound 0.000949 µM, first compound 0.0949 µM): 0.44%
- viability, T/C (second compound 0.000949 µM, first compound 0.3 µM): 0.4%
- viability, T/C (second compound 0.000949 µM, first compound 0.949 µM): 0.25%
- viability, T/C (second compound 0.000949 µM, first compound 3 µM): 0.25%
- viability, T/C (second compound 0.000949 µM, first compound 9.49 µM): 0.15%
- viability, T/C (second compound 0.000949 µM, first compound 30 µM): 0.44%
- viability, T/C (second compound 0.003 µM, first compound 0.0949 µM): 1.64%
- viability, T/C (second compound 0.003 µM, first compound 0.3 µM): 1.88%
- viability, T/C (second compound 0.003 µM, first compound 0.949 µM): 1.67%
- viability, T/C (second compound 0.003 µM, first compound 3 µM): 2.88%
- viability, T/C (second compound 0.003 µM, first compound 9.49 µM): 3.79%
- viability, T/C (second compound 0.003 µM, first compound 30 µM): 5.74%
